Laboratory results from patent US20130059879A1, “Small Molecule Inhibitors of PFKFB3 and Glycolytic Flux and Their Methods of Use as Anti-Cancer Therapeutics” (UNIVERSITY OF LOUISVILLE RESEARCH FOUNDATION, INC., priority 2010, published 2013).

Assays:
[1] = Cell permeability in Caco2 monolayers; assay type: in vitro ADME; details: human, Caco-2, Caco2 cells, pH 7.4
From the text: The determination of the permeability in Caco2 or MDR1-MDCK cells is widely used when screening compounds to assess cell permeability, intestinal drug transport and predict absorption rates and to ascertain if a compound might be a Pgp substrate and have cross the blood brain barrier. […] Comparison of the apical to basal (A-B) and basal to apical (B-A) values show if a compound is actively effluxed out the cells and if it is a Pgp substrate. […] Briefly, cell permeability and transport mechanisms in Caco-2 and MDR1-MDCK monolayers experiments were performed in triplicate in the apical-to-basolateral and basolateral-to-apical direction using Transwell wells containing either Caco-2 or MDR1-MDCK monolayers. A modified Hanks buffer pH 7.4 was used in both reservoir and receiver wells with the addition of 1% BSA in the receiver side. Confluent monolayers were used and their integrity was verified using reference compounds (Atenolol as a low permeability reference compound and Propanolol as a high permeability reference compound). A sample in the basolateral and apical sides was taken after 2 hours and the concentration measured by LC/MS-MS.

[2] = Microsomal stability in human liver microsomes; assay type: in vitro ADME
Method: Microsomal stability in vitro in different biologic media (liver microsomes, S9 fraction, hepatocytes) and species is ascertained to evaluate the rate at which a compound undergoes metabolism in the experimental in vitro conditions. Results for some compounds of the invention after a 60 minutes incubation period in human liver microsomes are shown in the Table 6 below. […] Experimental conditions are briefly described here: the stability in human liver microsomes of several compounds was done over […] at 37° C. using pooled mixed gender human liver microsomes. These liver microsomes were prepared at 1.0 mg/ml of microsomal protein in a 100 mM potassium phosphate pH 7.4 buffer with 1 mM NADPH. The media was incubated at 37° C. with the compound in solution in DMSO. The concentration of the compound was followed by LC/MS-MS as a function of time. Samples were assayed at t=0, 15, 30, and 60 minutes. Testosterone was used as a positive control. The same experiment was performed with mouse, rat or dog liver microsomes instead of human liver microsomes.

[3] = Pharmacokinetics in mice; assay type: in vivo, Balbc mice
Method: The pharmacokinetic parameters for several compounds were determined in mice following IV (intravenous), IP (intraperitoneal), or PO (per os) administration, as well as in rats and dogs. A typical study design includes six Balbc male mice 7 to 8 weeks old. For instance, a dose of 10 mg/kg was administered IV using a 5% DMS0/90% Captisol (20% in water) solution or other pharmaceutically acceptable parenteral and oral formulations. Blood samples were collected at different intervals. Plasma samples were extracted and analyzed using an LC-MS/MS method. Similar protocols were used for the rats (Sprague Dawley rats) or dogs (beagles) PK studies; in the case of dogs PK studies, the number of animals per group was three.
PFK-065 was dosed at 10 mg/kg in male Balbc mice; PFK-095 was dosed at 10 mg/kg in male Sprague Dawley rats; and PFK-112 dosed at 6 mg/kg in male beagle dogs.

[4] = target: T1, PFKFB3 (Homo sapiens, UniProt Q16875); test: Inhibition of recombinant PFKFB3 kinase activity (ADP Glow assay); assay type: biochemical; details: 250 nM analog concentration; read-out: % Inhibition of PFKFB3 Enzymatic Activity
T1 construct: GST
T1 sequence (Q16875 whole entry, species assumed): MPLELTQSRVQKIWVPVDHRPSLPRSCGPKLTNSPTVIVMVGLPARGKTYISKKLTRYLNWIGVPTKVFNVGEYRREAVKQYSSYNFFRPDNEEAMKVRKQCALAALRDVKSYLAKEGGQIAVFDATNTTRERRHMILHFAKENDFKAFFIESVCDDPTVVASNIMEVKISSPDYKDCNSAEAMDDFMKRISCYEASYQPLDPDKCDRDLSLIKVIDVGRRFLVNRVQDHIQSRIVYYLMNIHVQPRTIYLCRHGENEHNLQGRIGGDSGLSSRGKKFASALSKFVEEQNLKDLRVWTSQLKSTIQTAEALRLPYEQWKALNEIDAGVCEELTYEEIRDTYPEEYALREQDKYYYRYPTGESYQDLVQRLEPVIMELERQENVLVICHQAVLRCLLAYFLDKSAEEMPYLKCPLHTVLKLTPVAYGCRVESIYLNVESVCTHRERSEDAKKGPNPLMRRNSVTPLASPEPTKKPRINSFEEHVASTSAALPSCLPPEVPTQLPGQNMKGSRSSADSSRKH
Method: PFKFB3 was prepared by expression in E. coli and purified by GST column and column chromatography. […] The recombinant protein was pure and active as determined by the results of a kinase activity assay commercially available (such as ADP Glow® assay, […]). The same assay was used to determine the inhibition of the protein and the results are shown in Table 5 below (IC50 values or percent inhibition at a fixed concentration). Results confirmed that the compounds of the invention have low nanomolar IC50 values, interacting with PFKFB3 and inhibiting its enzymatic activity.

[5] = system: MDA-MB-231; test: Cancer cell proliferation, Alamar Blue assay, 72 hours; assay type: cell-based; details: Homo sapiens
Method: (§1) The ability of the compounds described herein to kill or inhibit the proliferation of cancer cells was measured using either the MTT assay, or the Alamar Blue assay, or the Cell Titer Glow® assay using 48 or 72 hours exposure. […] The procedures are briefly described below. Cells of the desired tumor cell line were plated at 2×10^5 cells/ml in 96 well plates. Twice the indicated concentrations of the compounds of the invention were added to cells the following day in an equal volume of media. 72 hours later, cells were lysed and subjected to ATP determination using the CellTiter Glo-Luminescent Cell Viability Assay kit (Promega, Madison, Wis.). Experiments were done in triplicate. When using the MTT assay or the Alamar blue assay, the experimental conditions are essentially similar; at the end of the incubation period, 20 microliters of the MTT solution is added per well and the samples are incubated for an additional four hours, rinsed, and the absorbance at 570 nm measured. […] Table 2 lists the IC50 values for the compounds of the invention in several cell lines including Jurkat, Calu-6, NCI-H82, U937, HCT-116, and MDA-MB-231 cancer cell lines.

[6] = system: U937; test: as above; assay type: cell-based; details: Homo sapiens, U-937
Method: as §1

[7] = system: NCI-H82; test: as above; assay type: cell-based; details: Homo sapiens, NCI-H82, read-out: IC50 NCl-H82
Method: as §1

[8] = system: Jurkat; test: as above; assay type: cell-based; details: Homo sapiens, Jurkat
Method: as §1

[9] = system: Calu-6; test: as above; assay type: cell-based; details: Homo sapiens, Calu-6
Method: as §1

[10] = system: HCT-116; test: as above; assay type: cell-based; details: Homo sapiens, HCT-116
Method: as §1

[11] = mouse, plasma, IV 10 mg/kg, male Balbc mice

- Papp A→B at 2 h ([1]; apical to basal): 10.3 ×10⁻⁶ cm/s
- Papp B→A at 2 h ([1]; basal to apical): 5.9 ×10⁻⁶ cm/s
- HLM, Mean metabolized (%) ([2]; 0 min): 0.0%
- HLM, Mean metabolized (%) ([2]; 60 min incubation, 1.0 mg/ml microsomal protein, 1 mM NADPH, 37° C.): 93%
- T1/2b ([3]; IV 10 mg/kg, male Balbc mice): 2.1 h
- AUC(0-inf) [3, 11]: 2630 ng·h/mL
- Cmax [3, 11]: 4110 ng/mL
- Vd [3, 11]: 11.2 L/kg
- % F (from PO group) ([3]; oral bioavailability, Balbc mice, PO 20 mg/kg vs IV 10 mg/kg): 25%
- inhibition at 0.25 µM [4]: 13.5%
- IC50 [5]: 625 nM
- IC50 [6]: 165 nM
- IC50 [7]: 283 nM
- IC50 [8]: 775 nM
- IC50 [9]: 267 nM
- IC50 [10]: 1310 nM
SMILES: O=C(c1ccccc1)c1cc2c(ccc3ccccc32)[nH]1 [ACT-PFK-065, (3H-Benzo[e]indol-2-yl)-phenyl-methanone]
